# Measurements from patent US12459930B2, “Compounds for the inhibition of unregulated cell growth” (GODAVARI BIOREFINERIES LIMITED, priority 2018, dated 2025).
# Columns and labels:
# [1] = system: MDAMB231 breast cancer cell line; test: In vitro antiproliferative assay (MTT assay), MDAMB231; format: cell-based; details: Homo sapiens, MDA-MB-231, 48 h, 48 hrs drug incubation, read-out: IC50 in micromolar, MDAMB231 (MTT assay)
# Outline: (§1)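 Compound exposure lasted 48 h at 37 °C in 5% CO2, following a 24 h attachment period; DMSO stocks were 0.1 M. Metabolic reduction of MTT (0.5 mg/ml, 4 h), solubilized in DMSO, gave viability, plotted as log % viability versus log drug concentration.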
# [2] = system: PC3 prostate cancer cell line; test: In vitro antiproliferative assay (MTT assay), PC3; format: cell-based; details: 48 h, 48 hrs drug incubation, read-out: IC50 in micromolar, PC3 (MTT assay)
# Outline: as §1
# [3] = system: DU145 prostate cancer cell line; test: In vitro antiproliferative assay (MTT assay), DU145; format: cell-based; details: Homo sapiens, DU-145, 48 h, 48 hrs drug incubation, read-out: IC50 in micromolar, DU145 (MTT assay)
# Outline: as §1
# [4] = system: MDAMB231 breast cancer cell line; test: Soft agar colony-formation assay, MDAMB231; format: cell-based; details: Homo sapiens, MDA-MB-231, 168 h, 1 week, Alamar Blue, read-out: IC50 in micromolar, MDAMB231 (Soft Agar Assay)
# Outline: (§2)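 Cells were embedded with drug in a top soft-agar layer over an agar base in 96-well format. Colonies grew for 1 week at 37 °C, 5% CO2, with medium feeding at day 3. Alamar Blue was added for 24 h, absorbance read at 630 nm, and log percent viability plotted against log drug concentration.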
# [5] = system: PC3 prostate cancer cell line; test: Soft agar colony-formation assay, PC3; format: cell-based; details: 168 h, 1 week, Alamar Blue, read-out: IC50 in micromolar, PC3 (Soft Agar Assay)
# Outline: as §2
# [6] = system: PC3 spheres (cancer stem cells); test: In vitro sphere-forming assay (cancer stem cells), PC3 in Prostosphere media; details: for 3D sphere count of PC3 in Prostosphere media: 2000 cells/well, n = 6 ± S.D; for viability at 0.0025 µM: read-out: % Viability of spheres (PC3), 0.0025 uM; for viability at 0.0025 µM / viability at 0.025 µM / viability at 0.25 µM / viability at 2.5 µM / viability at 25 µM: GCD = 100% viability; for viability at 0.025 µM: read-out: % Viability of spheres (PC3), 0.025 uM; for viability at 0.25 µM: read-out: % Viability of spheres (PC3), 0.25 uM; for viability at 2.5 µM: read-out: % Viability of spheres (PC3), 2.5 uM; for viability at 25 µM: read-out: % Viability of spheres (PC3), 25 uM
# Text: (§3) In Vitro Sphere-forming Assay: Sphere assay measures the ability of cancer stem cells (CSCs) to form spheres in specially designed serum-free medium.
# Materials and Reagents:50×B27 Supplement (Life Technologies, Invitrogen, Catlog No.: 17502-044), Fibroblast Growth Factor (FGF) (Sigma-Aldrich, Catlog No.: F029125), Epidermal Growth Factor (EGF) (Sigma-Aldrich, Catlog No.: E9644), Insulin (Sigma, Catlog No.: 19278), Dulbecco's Modified Eagle Medium/F12 (HiMedia Catlog No.: AL139-6), Dulbecco's Phosphate Buffered Saline (HiMedia Catlog No.: TL1006), Trypan Blue (TC193), Prostate Epithelial Media (LONZA, Catlog No.: CC-3166) MEGM (LONZA, Catlog No.: CC-3051), Heparin (Sigma, Catlog No.: H3393), Penstrep (HiMedia, Catlog No.: A002)
# Prostosphere Media Preparation (For 100 mL): 1 g methyl cellulose autoclaved with magnetic stirrer, 100 mL plain media (Prostate Epithelial Basal Medium) was added and dissolved, under magnetic stirring. After complete dissolution, Insulin—40 μL, B27—2 mL, EGF—80 μL, Penstrep—1 ml was added.
# (§4) Procedure—The cells were trypsinised and made into single-cell suspension by passing through cell strainers (100 μl and 40 μl, respectively), The cells were diluted at a concentration of 2000 cells/100 μL and suspended in either Mammosphere (for breast cell lines) or Prostosphere (for prostate cell lines). 100 μL of this suspension was added into each well of 96-well suspension plates and incubated at 37 C, 50 CO2 for 24 hrs. Appropriate concentrations of the drugs (2 L) were added into respective wells with 100 μL of stem cell culture medium. Plates were incubated at 37° C., 50% CO2 for 72 hrs. After incubation, 2.5 μL of the respective drug concentration and 50 μL of stem cell culture medium were added into each well and the plates were further incubated at 37° C., 500 CO2 for 72 hrs. 3 μL of the respective drug concentration was added with 50 μL of stem cell culture medium again after incubation and plates were reincubated for 72 hrs at 37° C., 500 CO2. Number of primary spheres formed for each concentration were counted. The spheres were converted to 0 viability of spheres compared to untreated (Growth Control with DMSO, GCD).
# [7] = system: MDAMB231 spheres (cancer stem cells); test: In vitro sphere-forming assay (cancer stem cells), MDAMB231 in Mammosphere media; details: for 3D sphere count of MDAMB231 in Mammosphere media: 2000 cells/well, n = 6 ± S.D; for viability at 0.0025 µM / viability at 0.025 µM / viability at 0.25 µM / viability at 2.5 µM / viability at 25 µM: Homo sapiens, MDA-MB-231, read-out: % Viability of spheres (MDAMB231)
# Experimental: as §3
# Mammosphere Media Preparation (For 100 mL): 1 g methyl cellulose autoclaved with magnetic stirrer, 100 ml plain media (MEBM) was added and dissolved under magnetic stirring. After complete dissolution FGF—80 μL, EGF—40 μL, Penstrep—1 mL, Heparin—400 μL was added.
# as §4
SMILES,IC50 [1] [µM],IC50 [2] [µM],IC50 [3] [µM],IC50 [4] [µM],IC50 [5] [µM],3D sphere count of PC3 in Prostosphere media ([6]; 0.0025 uM),3D sphere count of PC3 in Prostosphere media ([6]; 0.025 uM),3D sphere count of PC3 in Prostosphere media ([6]; 0.25 uM),3D sphere count of PC3 in Prostosphere media ([6]; 2.5 uM),3D sphere count of PC3 in Prostosphere media ([6]; 25 uM),viability at 0.0025 µM [6] [%],viability at 0.025 µM [6] [%],viability at 0.25 µM [6] [%],viability at 2.5 µM [6] [%],viability at 25 µM [6] [%],3D sphere count of MDAMB231 in Mammosphere media ([7]; 0.0025 uM),3D sphere count of MDAMB231 in Mammosphere media ([7]; 0.025 uM),3D sphere count of MDAMB231 in Mammosphere media ([7]; 0.25 uM),3D sphere count of MDAMB231 in Mammosphere media ([7]; 2.5 uM),3D sphere count of MDAMB231 in Mammosphere media ([7]; 25 uM),also measured
"O=C1OCc2c1c(-c1ccc3c(c1)OCO3)c1cc3c(cc1c2OCCCCN1CCOCC1)OCO3 [Formula XIII, 4-(4-morpholinobutoxy)-9-(benzo[d][1,3]dioxol-5-yl)-6,7-methylenedioxynaphtho[2,3-c]furan-1(3H)-one]",7.29,8.83,8.85,3.03,3.84,49(±3),44(±4),35(±3),32(±3),27(±3),62,55,44,40,34,49(±3),40(±3),36(±2),30(±4),21(±3),viability at 0.0025 µM [7]: 62%; viability at 0.025 µM [7]: 50%; viability at 0.25 µM [7]: 45%; viability at 2.5 µM [7]: 38%; viability at 25 µM [7]: 26%
"c1ccc2c(-c3ccc4c(c3)OCO4)ccc(OCCCCNC3CCCCC3)c2c1 [Formula XIV, N-(4-(1-(benzo[d][1,3]dioxol-5-yl)naphthalen-4-yloxy)butyl)cyclohexan amine]",0.308,0.346,0.532,2.8,0.4,56(±3),44(±5),39(±5),24(±3),13(±3),64,51,45,28,15,47(±3),43(±3),21(±7),21(±3),7(±3),viability at 0.0025 µM [7]: 57%; viability at 0.025 µM [7]: 52%; viability at 0.25 µM [7]: 26%; viability at 2.5 µM [7]: 26%; viability at 25 µM [7]: 9%
"CN1CCN(CCCCOc2ccc(-c3ccc4c(c3)OCO4)c3c2CCCC3)CC1 [Formula XIX, 1-(4-(5-(benzo[d][1,3]dioxol-5-yl)-1,2,3,4-tetrahydronaphthalen-8-yloxy)butyl)-4-methylpiperazine]",2.14,3.71,2.04,3.41,5.12,51(±3),40(±3),35(±3),25(±3),13(±2),62,48,42,30,15,48(±4),40(±4),34(±3),23(±5),13(±2),viability at 0.0025 µM [7]: 61%; viability at 0.025 µM [7]: 50%; viability at 0.25 µM [7]: 43%; viability at 2.5 µM [7]: 29%; viability at 25 µM [7]: 16%
"c1cc2c(cc1-c1ccc(OCCCCCCNC3CCCCC3)c3c1CCCC3)OCO2 [Formula XVIII, N-(6-(5-(benzo[d][1,3]dioxol-5-yl)-1,2,3,4-tetrahydronaphthalen-8-yloxy)hexyl) cyclohexanamine]",0.398,0.32,0.348,4.18,2.63,50(±4),43(±5),39(±3),27(±4),19(±3),63,54,49,34,24,54(±3),49(±4),39(±2),28(±3),19(±1),viability at 0.0025 µM [7]: 65%; viability at 0.025 µM [7]: 58%; viability at 0.25 µM [7]: 45%; viability at 2.5 µM [7]: 34%; viability at 25 µM [7]: 24%
"c1cc2c(cc1-c1ccc(OCCCCCCN3CCOCC3)c3c1CCCC3)OCO2 [Formula XX, 4-(6-(5-(benzo[d][1,3]dioxol-5-yl)-1,2,3,4-tetrahydronaphthalen-8-yloxy)hexyl) morpholine]",3.04,3.34,3.87,3.78,3.31,48(±5),37(±2),33(±4),15(±3),0(±0),58,45,40,18,0,48(±4),37(±4),27(±3),14(±4),0(±0),viability at 0.0025 µM [7]: 61%; viability at 0.025 µM [7]: 47%; viability at 0.25 µM [7]: 34%; viability at 2.5 µM [7]: 17%; viability at 25 µM [7]: 0%
